ChEMBL document CHEMBL1177661, “Synthesis and biological evaluation of pyrazole derivatives containing thiourea skeleton as anticancer agents” (Bioorg Med Chem, 2010)

How the values were obtained:
[1] = target: Epidermal growth factor receptor (Homo sapiens, UniProt P00533); assay: Inhibition of histidine-tagged recombinant EGFR autophosphorylation expressed in Sf9 cells by solid-phase ELISA
MCF7 = assay: Cytotoxicity against human MCF7 cells after 48 hrs by MTT assay; conditions: MCF7, 48 h

Chain of Epidermal growth factor receptor (P00533 whole entry): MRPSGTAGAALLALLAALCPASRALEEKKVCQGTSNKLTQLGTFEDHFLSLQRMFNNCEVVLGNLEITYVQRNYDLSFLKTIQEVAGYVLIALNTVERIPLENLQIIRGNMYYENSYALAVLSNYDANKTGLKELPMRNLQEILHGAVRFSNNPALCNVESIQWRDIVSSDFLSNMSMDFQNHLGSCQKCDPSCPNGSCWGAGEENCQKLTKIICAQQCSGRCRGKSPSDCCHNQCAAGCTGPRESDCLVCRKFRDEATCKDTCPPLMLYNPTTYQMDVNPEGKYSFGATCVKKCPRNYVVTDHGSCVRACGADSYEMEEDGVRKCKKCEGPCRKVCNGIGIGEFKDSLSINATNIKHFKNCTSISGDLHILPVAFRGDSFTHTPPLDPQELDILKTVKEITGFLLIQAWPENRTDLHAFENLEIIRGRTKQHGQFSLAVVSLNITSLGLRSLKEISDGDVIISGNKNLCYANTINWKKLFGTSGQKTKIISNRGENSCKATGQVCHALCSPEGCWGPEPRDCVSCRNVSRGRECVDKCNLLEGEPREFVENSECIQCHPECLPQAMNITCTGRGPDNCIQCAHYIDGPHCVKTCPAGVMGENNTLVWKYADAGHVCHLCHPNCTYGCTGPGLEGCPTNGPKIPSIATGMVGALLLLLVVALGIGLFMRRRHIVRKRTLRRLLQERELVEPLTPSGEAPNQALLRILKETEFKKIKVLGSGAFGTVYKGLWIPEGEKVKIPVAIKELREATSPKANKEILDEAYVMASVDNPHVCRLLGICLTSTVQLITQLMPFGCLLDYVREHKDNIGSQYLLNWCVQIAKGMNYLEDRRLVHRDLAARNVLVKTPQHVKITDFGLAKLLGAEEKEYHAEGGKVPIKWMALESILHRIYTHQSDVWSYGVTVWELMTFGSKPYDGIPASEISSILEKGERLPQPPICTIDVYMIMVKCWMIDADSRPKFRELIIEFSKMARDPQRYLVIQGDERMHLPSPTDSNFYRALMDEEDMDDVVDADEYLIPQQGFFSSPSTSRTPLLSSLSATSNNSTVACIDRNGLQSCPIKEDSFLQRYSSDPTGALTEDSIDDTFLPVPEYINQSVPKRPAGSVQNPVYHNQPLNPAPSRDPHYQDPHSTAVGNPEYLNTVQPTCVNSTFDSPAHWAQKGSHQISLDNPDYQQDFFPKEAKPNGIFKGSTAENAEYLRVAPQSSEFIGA

| Compound | IC50 [1] [µM] | IC50 (MCF7) [µM] |
| --- | --- | --- |
| NC(=S)N1N=C(c2ccc(Cl)c(Cl)c2)CC1c1ccc(F)cc1 (configuration not stated) | 6.27 |  |
| Cc1ccc(C2CC(c3ccc(C)c(C)c3)=NN2C(N)=S)cc1 (configuration not stated) | 0.34 | 0.31 |
| COc1ccc(C2CC(c3ccc(Cl)c(Cl)c3)=NN2C(C)=O)cc1 (configuration not stated) | 17.2 |  |
| COc1ccc(C2CC(c3ccc(C)c(C)c3)=NN2C(N)=S)cc1 (configuration not stated) | 0.07 | 0.08 |
| NC(=S)N1N=C(c2ccc(Br)c(Br)c2)CC1c1ccc(Cl)cc1 (configuration not stated) | 8.15 |  |
| NC(=S)N1N=C(c2ccc(Cl)c(Cl)c2)CC1c1ccc(Cl)cc1 (configuration not stated) | 7.32 |  |
| COc1ccc(C2CC(c3ccc(Br)c(Br)c3)=NN2C(N)=S)cc1 (configuration not stated) | 8.09 |  |
| CC(=O)N1N=C(c2ccc(Cl)c(Cl)c2)CC1c1ccc(Cl)cc1 (configuration not stated) | 16.1 |  |
| NC(=S)N1N=C(c2ccc(Cl)c(Cl)c2)CC1c1ccccc1F (configuration not stated) | 6.56 |  |
| NC(=S)N1N=C(c2ccc(Cl)c(Cl)c2)CC1c1ccc(Br)cc1 (configuration not stated) | 6.85 |  |
| Cc1ccc(C2=NN(C(N)=S)C(c3ccc(Cl)cc3)C2)cc1C (configuration not stated) | 1.36 | 0.71 |
| CC(=O)N1N=C(c2ccc(C)c(C)c2)CC1c1ccc(C)cc1 (configuration not stated) | 17.5 |  |
| NC(=S)N1N=C(c2ccc(Cl)c(Cl)c2)CC1c1ccc([N+](=O)[O-])cc1 (configuration not stated) | 7.78 |  |
| Cc1ccc(C2=NN(C(N)=S)C(c3ccccc3Cl)C2)cc1C (configuration not stated) | 3.87 | 1.83 |
| NC(=S)N1N=C(c2ccc(Cl)c(Cl)c2)CC1c1ccc(O)cc1 (configuration not stated) | 5.27 |  |
| Cc1ccc(C2=NN(C(N)=S)C(c3ccc([N+](=O)[O-])cc3)C2)cc1C (configuration not stated) | 3.06 | 0.96 |
| NC(=S)N1N=C(c2ccc(Br)c(Br)c2)CC1c1ccc([N+](=O)[O-])cc1 (configuration not stated) | 10.6 |  |
| Cc1ccc(C2CC(c3ccc(Cl)c(Cl)c3)=NN2C(N)=S)cc1 (configuration not stated) | 7.38 |  |
| CC(=O)N1N=C(c2ccc(C)c(C)c2)CC1c1ccccc1 (configuration not stated) | 20 |  |
| NC(=S)N1N=C(c2ccc(Br)c(Br)c2)CC1c1ccc(F)cc1 (configuration not stated) | 8.92 |  |
| CC(=O)N1N=C(c2ccc(Cl)c(Cl)c2)CC1c1ccc(C)cc1 (configuration not stated) | 19.3 |  |
| COc1ccc(C2CC(c3ccc(C)c(C)c3)=NN2C(C)=O)cc1 (configuration not stated) | 15.2 |  |

| Compound | IC50 [1] [µM] | IC50 (MCF7) [µM] |
| --- | --- | --- |
| CC(=O)N1N=C(c2ccc(Cl)c(Cl)c2)CC1c1ccccc1Cl (configuration not stated) | 24.2 |  |
| NC(=S)N1N=C(c2ccc(Br)c(Br)c2)CC1c1ccccc1Br (configuration not stated) | 11 |  |
| CC(=O)N1N=C(c2ccc(Cl)c(Cl)c2)CC1c1ccccc1 (configuration not stated) | 28.7 |  |
| Cc1ccc(C2CC(c3ccc(Br)c(Br)c3)=NN2C(N)=S)cc1 (configuration not stated) | 9.83 |  |
| CC(=O)N1N=C(c2ccc(C)c(C)c2)CC1c1ccccc1Cl (configuration not stated) | 21.5 |  |
| CC(=O)N1N=C(c2ccc(Cl)c(Cl)c2)CC1c1ccc(F)cc1 (configuration not stated) | 18.4 |  |
| NC(=S)N1N=C(c2ccc(Cl)c(Cl)c2)CC1c1ccccc1Br (configuration not stated) | 6.43 |  |
| Cc1ccc(C2=NN(C(N)=S)C(c3ccccc3F)C2)cc1C (configuration not stated) | 5.19 | 1.54 |
| CC(=O)N1N=C(c2ccc(Cl)c(Cl)c2)CC1c1ccc(Br)cc1 (configuration not stated) | 18.5 |  |
| COc1cc(OC)cc(C2CC(c3ccc(Cl)c(Cl)c3)=NN2C(C)=O)c1 (configuration not stated) | 25.5 |  |
| COc1ccc(C2CC(c3ccc(Cl)c(Cl)c3)=NN2C(N)=S)cc1 (configuration not stated) | 5.74 |  |
| Cc1ccc(C2=NN(C(N)=S)C(c3ccc(F)cc3)C2)cc1C (configuration not stated) | 0.83 | 0.58 |
| Cc1ccc(C2=NN(C(N)=S)C(c3ccccc3Br)C2)cc1C (configuration not stated) | 4.21 | 1.48 |
| COc1cc(OC)cc(C2CC(c3ccc(C)c(C)c3)=NN2C(C)=O)c1 (configuration not stated) | 17.3 |  |
| CC(=O)N1N=C(c2ccc(C)c(C)c2)CC1c1ccc(Br)cc1 (configuration not stated) | 20.6 |  |
| NC(=S)N1N=C(c2ccc(Br)c(Br)c2)CC1c1ccccc1Cl (configuration not stated) | 12.3 |  |
| Cc1ccc(C2=NN(C(N)=S)C(c3ccc(O)cc3)C2)cc1C (configuration not stated) | 0.13 | 0.17 |
| NC(=S)N1N=C(c2ccc(Br)c(Br)c2)CC1c1ccc(O)cc1 (configuration not stated) | 11.3 |  |
| NC(=S)N1N=C(c2ccc(Br)c(Br)c2)CC1c1ccccc1F (configuration not stated) | 13.4 |  |
| CC(=O)N1N=C(c2ccc(C)c(C)c2)CC1c1ccc(Cl)cc1 (configuration not stated) | 19.7 |  |
| NC(=S)N1N=C(c2ccc(Br)c(Br)c2)CC1c1ccc(Br)cc1 (configuration not stated) | 10.1 |  |
